Laboratory results as given in patent publication US20250179022A1, “COMPOUND USED AS TYK2 INHIBITOR, PREPARATION METHOD THEREFOR, AND PHARMACEUTICAL USE THEREOF” (SHANGHAI ZHIGEN PHARMACEUTICAL & TECHNOLOGY CO. LTD., priority 2022, published 2025).
Values belong to the compound of their own block, whether it stands above or below them.

Legend:
TYK2 = target: T1, TYK2 (Homo sapiens, UniProt P29597, E957D); assay: TYK2 kinase activity inhibition assay (Ba/F3-FL-TYK2-E957D cell proliferation, CellTiter-Glo); format: cell-based; settings: 72 h
T1 construct: host or cells: Ba/F3 (murine B lymphocytes)
T1 sequence (P29597 whole entry E957D): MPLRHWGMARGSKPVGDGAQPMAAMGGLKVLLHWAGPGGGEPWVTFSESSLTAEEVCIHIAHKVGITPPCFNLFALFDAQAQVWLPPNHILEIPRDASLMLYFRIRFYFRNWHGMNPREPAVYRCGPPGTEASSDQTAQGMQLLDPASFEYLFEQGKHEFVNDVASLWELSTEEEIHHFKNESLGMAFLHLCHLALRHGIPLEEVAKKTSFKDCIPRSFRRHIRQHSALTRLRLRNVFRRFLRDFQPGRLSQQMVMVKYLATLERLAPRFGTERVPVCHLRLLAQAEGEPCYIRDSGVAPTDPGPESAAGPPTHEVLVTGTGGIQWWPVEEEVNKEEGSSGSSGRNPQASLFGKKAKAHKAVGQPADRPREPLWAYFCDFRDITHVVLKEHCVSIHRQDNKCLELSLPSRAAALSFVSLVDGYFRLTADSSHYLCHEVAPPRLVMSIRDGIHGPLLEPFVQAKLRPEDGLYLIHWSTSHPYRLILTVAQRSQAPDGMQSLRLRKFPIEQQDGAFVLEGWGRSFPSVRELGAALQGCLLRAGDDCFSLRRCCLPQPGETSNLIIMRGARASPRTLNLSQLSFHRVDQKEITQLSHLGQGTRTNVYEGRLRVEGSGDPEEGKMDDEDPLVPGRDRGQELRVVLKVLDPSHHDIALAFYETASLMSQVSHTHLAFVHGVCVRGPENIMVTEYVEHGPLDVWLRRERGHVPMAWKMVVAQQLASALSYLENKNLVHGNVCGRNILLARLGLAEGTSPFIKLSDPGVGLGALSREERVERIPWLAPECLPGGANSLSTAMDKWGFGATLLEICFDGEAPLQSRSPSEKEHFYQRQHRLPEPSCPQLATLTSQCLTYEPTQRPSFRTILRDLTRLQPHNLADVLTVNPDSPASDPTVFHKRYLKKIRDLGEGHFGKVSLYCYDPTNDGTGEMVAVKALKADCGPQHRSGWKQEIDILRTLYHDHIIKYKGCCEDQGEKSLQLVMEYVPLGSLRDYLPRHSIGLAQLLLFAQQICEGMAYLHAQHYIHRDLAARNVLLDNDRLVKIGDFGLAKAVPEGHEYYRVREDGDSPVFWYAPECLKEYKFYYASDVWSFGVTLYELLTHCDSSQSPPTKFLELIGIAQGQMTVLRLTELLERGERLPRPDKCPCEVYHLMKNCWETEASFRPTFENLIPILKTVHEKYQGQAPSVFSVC
Description: The TYK2 kinase gene was introduced into wild-type murine-derived B lymphocytes (BaF3) to construct the Ba/F3-FL-TYK2-E957D stable cell line.
In this experiment, the inhibitory effect of the compounds on the proliferation of Ba/F3-FL-TYK2-E957D cells were tested, apoptosis was detected, and the IC50 value was calculated. The inhibitory activity of the compounds against TYK2 kinase was evaluated based on the IC50 value.
The tested compounds, powder and stored at room temperature, were prepared into 10 mM stock solution with DMSO and stored at −20° C. away from light for use.
Compounds were prepared into dilute solutions which was 1000 times of the final concentration. The compound was prepared into 20-times of the final concentration by diluting the compound with culture medium. 2 ul of 1000-times compound was added to per well to 98 ul of culture medium.
Cells (provided by Sundia Pharmaceutical Technology (Shanghai) Co., Ltd.) were resuspended and counted using an automated cell counter. The cell suspension was diluted to the desired density based on BaF3 seeding density of 2000 cells per well. Each well was plated with 95 ul of cells and incubated at 37° C. for stable equilibrium. 5 ul of 20-times compound was added to each well, with the wells to which the same volume of DMSO was added as a control.
The cell plate was equilibrated to room temperature. 40 ul CellTiter-Glo® Reagent was added to each well, shaken for 2 minutes and allowed to stand for 10 minutes. Detected with SpectraMax Paradigm.
• (1) IC50 was calculated using GraphPad Prism 5. • (2) % Inh=(Max signal−Compound signal)/(Max signal−Min signal)×100. • (3) Max signal was the positive control well with only the same volume of DMSO as the compound. • (4) Min signal was the negative control well with only the culture medium.

[1] = system: IFN-α-induced STAT phosphorylation; assay: IFN-α-induced STAT phosphorylation in human whole blood; format: cell-based; settings: human whole blood, 20 ng/ml IFN-α, pSTAT5 in CD3-positive cells; read-out: IC50, IFN-α inflammatory pathway (IFN-α-induced STAT phosphorylation)
Description: The cytokine receptor attached to TYK2 mediates the signaling of type 1 interferon (IFN-α), which has been identified as the most important inflammatory factor of the autoimmune system. Human whole blood is induced with IFN-α, and TYK2 from lymphocytes in whole blood triggered STAT phosphorylation, which mediated subsequent inflammatory signaling. Therefore, TYK2 inhibitors have an inhibitory effect on IFN-α signaling, and the stronger the TYK2 inhibitory activity, the lower the level of STAT phosphorylation, and the stronger the corresponding anti-inflammatory effect.
In this experiment, the ability of the compounds to inhibit IFN-α-induced STAT phosphorylation in human whole blood were tested, and the IC50 values were calculated. The anti-inflammatory activity of the compounds was evaluated at the tissue level and evaluation of the inhibitory activity of compounds on the IFN-α inflammatory pathway based on the IC50 value.
The tested compound, powder and stored at room temperature, prepared into 10 mM stock solution with DMSO and stored at −80° C. in the refrigerator.
1× Fix/Lysis solution preparation: 5× Fix/Lysis and ddH2O were diluted according to 1:4 and preheated in 37° C. incubator, waiting for use.
Flow cytometric staining buffer preparation: 1 g of bovine serum albumin (BSA) and 1 mL of EDTA (0.5 M) solution were added to 500 mL of phosphate buffer solution (PBS) and stored at 4° C. in the refrigerator.
Compound dilution solution: 0.5 g of bovine serum albumin (BSA) was added to 500 mL of phosphate buffer solution (PBS), and stored at 4° C. in the refrigerator.
50 μg/mL IFN-alpha was diluted to 400 ng/mL with Compound Diluent and set aside.
67.5 μL of human whole blood was added to a 96-well plate using a 300 μL electric volley gun. 3.5 μL of prepared test compound was added, mixed well and placed in the cell culture incubator. After 60 min incubation, 400 ng/mL IFN-α (Biolegend 592702, final concentration 20 ng/ml) was added. The obtained was mixed well and placed in the cell culture incubator to continue incubation for 15 min.
After cytokine stimulation, 5 ul of PE-CD3 (BD 555333) antibody was added to each well, mixed and incubation was continued at 4° C. in the refrigerator. At the end, whole blood was transferred to a 96-well deep-well plate using a volley gun, pre-warmed 1× Fix/Lysis solution was added, and cells were lysed and fixed for 12 minutes at 37° C. in an incubator. After being washed, 400 μL of Perm III solution was added, vortexed and incubated on ice for 30 minutes. Cells were then stained by 100 μL of APC-pSTAT5 (1:100) antibody for 50 min at room temperature. This was followed by flow-through instrumentation. The expression of pSTAT5 was quantified by median fluorescence intensity after gating the CD3-positive signaling cluster.

[2] = In vivo pharmacokinetic experiments in Beagle dogs (oral); settings: for Cmax / MRT / half-life: male, dog, plasma
Description: Experimental Methods: Healthy male Beagle dogs were randomly grouped into 3 […] in each group, and were given the test compounds orally. Before the gavage experiment, the dogs were fasted for 12 h, drank water freely, and were uniformly fed for 4 h after the administration of the drug. 0.083, 0.25, 0.5, 1.0, 2.0, 4.0, 6.0, 8.0, 10 and 24 h after administration; about 600 μL of blood was collected from the forelimb or hindlimb at the above set time points and placed in EDTA-K2 tubes, and the whole blood was collected and stored temporarily in an ice-water bath, and then centrifuged at least 3500 rpm for 10 min within 30 min, and the plasma was separated and frozen in a −70° C. refrigerator for testing.

[3] = In vivo pharmacokinetic experiment in rats (oral); design: species or system SD rats; settings: 20 mg/kg
Description: Experimental method: Healthy male SD rats were randomly grouped into 3 rats in each group and given the test compound orally. The rats were fasted for 12 h before the gavage experiment, and drank water freely, and were fed uniformly for 4 h after the administration of the compounds. Before (0 h) and 0.25, 0.5, 1.0, 2.0, 4.0, 6.0, 8.0 and 24 h after the administration of the test compounds, 0.2 mL of blood was collected from the jugular vein at the above set time points and placed in EDTA-K2 tubes, and the whole blood was collected and stored temporarily in an ice-water bath, and then centrifuged at 11,000 rpm for 5 min within 30 min, the plasma was separated, and frozen at −70° C. in a refrigerator for testing.

Compound: [2H]C([2H])([2H])NC(=O)c1nnc(NC(=O)C2CC2)cc1Nc1ncccc1S(C)(=O)=NC (centres unmarked) [Example 2, 6-(cyclopropylcarboxamido)-4-((3-(N,S-dimethylsulfoximino)pyridin-2-yl)amino)-N-(methyl-d3)pyridazine-3-carboxamide]
IC50 (TYK2): 2.4 nM

Compound: CN=S(C)(=O)c1ccc(N)nc1Nc1cc(NC(=O)C2CC2)nnc1C(=O)NC (centres unmarked) [Example 7, 4-((6-amino-3-(N,S-dimethylsulfoximino)pyridin-2-yl)amino)-6-(cyclopropylcarboxamido)-N-methylpyridazine-3-carboxamide]
IC50 [1]: 22.1 nM

Compound: CN=S(C)(=O)c1cc(Br)cnc1Nc1cc(NC(=O)C2CC2)nnc1C(=O)NC (centres unmarked) [Example 13, 4-((5-bromo-3-(N,S-dimethylsulfoximino)pyridin-2-yl)amino)-6-(cyclopropylcarboxamido)-N-methylpyridazine-3-carboxamide]
IC50 (TYK2): 3.9 nM

Compound: CN=S(C)(=O)c1cc(OC)cnc1Nc1cc(NC(=O)C2CC2)nnc1C(=O)NC (centres unmarked) [Example 14, 6-(cyclopropylamido)-4-((3-(N,S-dimethylsulfoximino)-5-methoxypyridin-2-yl)amino)-N-methylpyridazine-3-carboxamide]
IC50 (TYK2): 3.7 nM

Compound: CN=S(C)(=O)c1cc(C)cnc1Nc1cc(NC(=O)C2CC2)nnc1C(=O)NC (centres unmarked) [Example 15, 6-(cyclopropylcarboxamido)-4-((3-(N,S-dimethylsulfoximino)-5-methylpyridin-2-yl)amino)-N-methylpyridazine-3-carboxamide]
IC50 [1]: 18 nM

Compound: [2H]C([2H])([2H])NC(=O)c1nnc(NC(=O)C2CC2)cc1Nc1nc(N)c(Br)cc1[S@@](C)(=O)=NC [Example 30, (R)-4-((6-amino-5-bromo-3-(N,S-dimethylsulfoximino)pyridin-2-yl)amino)-6-(cyclopropylformyl)-N-(methyl-d3)pyridazine-3-carboxamide]
AUC ([2]; 2 mg/kg): 8454 ngh/mL
Cmax ([2]; 2 mg/kg): 625 ng/mL
MRT ([2]; 2 mg/kg): 11.8 h
half-life ([2]; 2 mg/kg): 8.61 h

Compound: [2H]C([2H])([2H])N=[S@](C)(=O)c1cc(Br)c(N)nc1Nc1cc(NC(=O)C2CC2)nnc1C(=O)NC([2H])([2H])[2H] [Example 41, (R)-4-((6-amino-5-bromo-3-(S-methyl-N-(methyl-d3)sulfonylimino)pyridin-2-yl)amino)-6-(cyclopropylcarboxamide)-N-(methyl-d3)pyridazine-3-carboxamide]
IC50 (TYK2): 0.4 nM

Compound: [2H]C([2H])([2H])N=[S@](C)(=O)c1cc(I)c(N)nc1Nc1cc(NC(=O)C2CC2)nnc1C(=O)NC([2H])([2H])[2H] [Example 42, (R)-4-((6-amino-5-iodo-3-(S-methyl-N-(methyl-d3)sulfonylimino)pyridin-2-yl)amino)-6-(cyclopropylcarboxamide)-N-(methyl-d3)pyridazine-3-carboxamide]
IC50 (TYK2): 0.4 nM

Compound: [2H]C([2H])([2H])N=[S@](C)(=O)c1cc(C#CC)c(N)nc1Nc1cc(NC(=O)C2CC2)nnc1C(=O)NC([2H])([2H])[2H] [Example 45, (R)-4-((6-amino-3-(S-methyl-N-(methyl-d3)sulfonylimino)-5-(propynyl-1-yl)pyridin-2-yl)amino)-6-(cyclopropylcarboxamide)-N-(methyl-d3)pyridazine-3-carboxamide]
IC50 (TYK2): 0.1 nM

The remaining lines, values ahead:

IC50 (TYK2): 3.5 nM
Compound: CN=S(C)(=O)c1cc(OCCCOC)cnc1Nc1cc(NC(=O)C2CC2)nnc1C(=O)NC (centres unmarked) [Example 16, 6-(cyclopropylcarboxamido)-4-((3-(N,S-dimethylsulfoximino)-5-(3-methoxypropoxy)pyridin-2-yl)amino)-N-methylpyridazine-3-carboxamide]

IC50 (TYK2): 1.1 nM
Compound: CN=S(C)(=O)c1cc2cc[nH]c2nc1Nc1cc(NC(=O)C2CC2)nnc1C(=O)NC (centres unmarked) [Example 31, 6-(cyclopropylcarboxamido)-4-((5-(N,S-dimethylsulfoximino)-1H-pyrrolo[2,3-b]pyridin-6-yl)amino)-N-methylpyridazine-3-carboxamide]

IC50 (TYK2): 1.2 nM
Compound: CN=S(C)(=O)c1cc2c(Cl)c(Cl)[nH]c2nc1Nc1cc(NC(=O)C2CC2)nnc1C(=O)NC (centres unmarked) [Example 33, 6-(cyclopropylamido)-4-((2,3-dichloro-5-(N,S-dimethylsulfoximino)-1H-pyrrolo[2,3-b]pyridin-6-yl)amino)-N-methylpyridazine-3-carboxamide]

IC50 (TYK2): 0.4 nM
AUC [3]: 22029 ngh/mL
F [3]: 109%
Cmax ([3]; male, SD, rat, plasma): 2950 ng/mL
MRT ([3]; male, SD, rat, plasma): 4.7 h
half-life ([3]; male, SD, rat, plasma): 2.65 h
AUC ([2]; 10 mg/kg): 79882 ngh/mL
F ([2]; 10 mg/kg): 136.6%
Cmax ([2]; 10 mg/kg): 4850 ng/mL
MRT ([2]; 10 mg/kg): 12.7 h
half-life ([2]; 10 mg/kg): 9.28 h
Compound: [2H]C([2H])([2H])N=[S@](C)(=O)c1cc(Cl)c(N)nc1Nc1cc(NC(=O)C2CC2)nnc1C(=O)NC([2H])([2H])[2H] [Example 40, (R)-4-((6-amino-5-chloro-3-(S-methyl-N-(methyl-d3)sulfonylimino)pyridin-2-yl)amino)-6-(cyclopropylcarboxamide)-N-(methyl-d3)pyridazine-3-carboxamide]

IC50 (TYK2): 1.1 nM
Compound: [2H]C([2H])([2H])N=[S@](C)(=O)c1cc(C2CC2)c(N)nc1Nc1cc(NC(=O)C2CC2)nnc1C(=O)NC([2H])([2H])[2H] [Example 43, (R)-4-((6-amino-5-cyclopropyl-3-(S-methyl-N-(methyl-d3)sulfonylimino)pyridin-2-yl)amino)-6-(cyclopropylcarboxamide)-N-(methyl-d3)pyridazine-3-carboxamide]

IC50 (TYK2): 0.3 nM
Compound: [2H]C([2H])([2H])N=[S@](C)(=O)c1cc(C=C)c(N)nc1Nc1cc(NC(=O)C2CC2)nnc1C(=O)NC([2H])([2H])[2H] [Example 44, (R)-4-((6-amino-3-(S-methyl-N-(methyl-d3)sulfonylimino)-5-vinylpyridin-2-yl)amino)-6-(cyclopropylcarboxamide)-N-(methyl-d3)pyridazine-3-carboxamide]

IC50 (TYK2): 0.1 nM
Compound: [2H]C([2H])([2H])N=[S@](C)(=O)c1cc(C#CC2CC2)c(N)nc1Nc1cc(NC(=O)C2CC2)nnc1C(=O)NC([2H])([2H])[2H] [Example 46]
